Among the data in the supplement of paper PMC10307832 are relative viability values, retold here.

What all share (test): relative viability (nuclei count vs DMSO), 5 days (fraction); higher = more cells survive
Compound in the experiment “IU1-47 + Phenformin”: CC1=CC(=C(N1C2=CC=C(C=C2)Cl)C)C(=O)CN3CCCCC3 [IU1-47] + N=C(N)NC(=N)NCCc1ccccc1 [Phenformin] (partner 250 µM)
In outline:
(§1)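 Lung cancer cell lines in 1536-well plates got either a single drug or a fixed anchor-drug dose together with five library-drug doses (not always all listed) in √10 steps, by pin tool, on the day after seeding. Nuclei were counted after 5 days, and relative viability is the treated-to-vehicle ratio of nuclei counts. Values are medians of duplicate plates.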

Compound in the experiment “FG-4592 + Trametinib”: Cc1nc(C(=O)NCC(=O)O)c(O)c2ccc(Oc3ccccc3)cc12 [FG-4592] + CC(=O)Nc1cccc(-n2c(=O)n(C3CC3)c(=O)c3c(Nc4ccc(I)cc4F)n(C)c(=O)c(C)c32)c1 [Trametinib] (partner 0.02 µM)
In outline: as §1

Compound in the experiment “FG-4592 + Pictilisib”: Cc1nc(C(=O)NCC(=O)O)c(O)c2ccc(Oc3ccccc3)cc12 [FG-4592] + CS(=O)(=O)N1CCN(Cc2cc3nc(-c4cccc5[nH]ncc45)nc(N4CCOCC4)c3s2)CC1 [Pictilisib] (partner 1 µM)
In outline:
as §1

Compound in the experiment “FG-4592 + Vorinostat”: Cc1nc(C(=O)NCC(=O)O)c(O)c2ccc(Oc3ccccc3)cc12 [FG-4592] + O=C(CCCCCCC(=O)Nc1ccccc1)NO [Vorinostat] (partner 1 µM)
In outline:
as §1

With NCI-H1993, the relative viability was determined as 0.488 in the experiment with IU1-47 + Phenformin (first compound 0.08 µM); 0.493 with IU1-47 + Phenformin (first compound 0.253 µM); 0.516 with IU1-47 + Phenformin (first compound 0.8 µM); 0.506 with IU1-47 + Phenformin (first compound 2.53 µM); 0.498 with IU1-47 + Phenformin (first compound 8 µM); 0.556 with FG-4592 + Trametinib (first compound 0.08 µM). Also, the relative viability came to 0.516 with FG-4592 + Trametinib (first compound 0.253 µM); 0.479 in the experiment with FG-4592 + Trametinib (first compound 2.53 µM); 0.507 in the experiment with FG-4592 + Trametinib (first compound 8 µM); 0.834 in the experiment with FG-4592 + Pictilisib (first compound 0.08 µM); 0.774 in the experiment with FG-4592 + Pictilisib (first compound 0.253 µM); 0.854 in the experiment with FG-4592 + Pictilisib (first compound 0.8 µM). Besides, the relative viability with FG-4592 + Pictilisib (first compound 2.53 µM) is 0.851; with FG-4592 + Pictilisib (first compound 8 µM), 0.66; with FG-4592 + Vorinostat (first compound 0.08 µM), 1.06; with FG-4592 + Vorinostat (first compound 0.253 µM), 0.69; with FG-4592 + Vorinostat (first compound 2.53 µM), 0.642; in the experiment with FG-4592 + Vorinostat (first compound 8 µM) it was 0.814.

Turning to NCI-H2009, the relative viability was determined as 0.519 with IU1-47 + Phenformin (first compound 0.08 µM); 0.501 in the experiment with IU1-47 + Phenformin (first compound 0.253 µM); 0.5 with IU1-47 + Phenformin (first compound 0.8 µM); 0.486 with IU1-47 + Phenformin (first compound 2.53 µM); 0.412 in the experiment with IU1-47 + Phenformin (first compound 8 µM); 0.32 with FG-4592 + Trametinib (first compound 0.08 µM). Also, the relative viability was determined as 0.181 in the experiment with FG-4592 + Trametinib (first compound 0.253 µM); 0.262 with FG-4592 + Trametinib (first compound 0.8 µM); 0.31 with FG-4592 + Trametinib (first compound 2.53 µM); 0.162 with FG-4592 + Trametinib (first compound 8 µM); 0.718 with FG-4592 + Pictilisib (first compound 0.08 µM); 0.653 with FG-4592 + Pictilisib (first compound 0.253 µM). Besides, the relative viability with FG-4592 + Pictilisib (first compound 0.8 µM) is 0.647; with FG-4592 + Pictilisib (first compound 2.53 µM), 0.671; with FG-4592 + Pictilisib (first compound 8 µM), 0.749; in the experiment with FG-4592 + Vorinostat (first compound 0.08 µM), 0.823; with FG-4592 + Vorinostat (first compound 0.253 µM), 0.694; with FG-4592 + Vorinostat (first compound 0.8 µM), 0.88. For the same cell line, the relative viability with FG-4592 + Vorinostat (first compound 2.53 µM) was 0.671; with FG-4592 + Vorinostat (first compound 8 µM), 0.727.

As to NCI-H2023, the relative viability in the experiment with IU1-47 + Phenformin (first compound 0.08 µM) was 0.459; in the experiment with IU1-47 + Phenformin (first compound 0.253 µM), 0.387; with IU1-47 + Phenformin (first compound 0.8 µM), 0.411; with IU1-47 + Phenformin (first compound 2.53 µM), 0.472; in the experiment with IU1-47 + Phenformin (first compound 8 µM) it was 0.378; in the experiment with FG-4592 + Trametinib (first compound 0.08 µM), 0.488. Also, the relative viability with FG-4592 + Trametinib (first compound 0.253 µM) is 0.595; with FG-4592 + Trametinib (first compound 0.8 µM), 0.612; in the experiment with FG-4592 + Trametinib (first compound 2.53 µM), 0.593; in the experiment with FG-4592 + Trametinib (first compound 8 µM), 0.506; with FG-4592 + Pictilisib (first compound 0.08 µM), 0.203; with FG-4592 + Pictilisib (first compound 0.253 µM), 0.202. In addition, the relative viability with FG-4592 + Pictilisib (first compound 0.8 µM) was determined as 0.143; in the experiment with FG-4592 + Pictilisib (first compound 2.53 µM), 0.205; with FG-4592 + Pictilisib (first compound 8 µM) it was 0.196; with FG-4592 + Vorinostat (first compound 0.08 µM), 0.631; with FG-4592 + Vorinostat (first compound 0.253 µM), 0.514; with FG-4592 + Vorinostat (first compound 0.8 µM), 0.572. In addition, the relative viability was 0.553 in the experiment with FG-4592 + Vorinostat (first compound 2.53 µM) and 0.543 with FG-4592 + Vorinostat (first compound 8 µM).

On to NCI-H2085, for which the relative viability with IU1-47 + Phenformin (first compound 0.08 µM) came to 0.736; in the experiment with IU1-47 + Phenformin (first compound 0.253 µM) it was 0.711; with IU1-47 + Phenformin (first compound 0.8 µM) it was 0.713; in the experiment with IU1-47 + Phenformin (first compound 2.53 µM), 0.771; with IU1-47 + Phenformin (first compound 8 µM), 0.675; with FG-4592 + Trametinib (first compound 0.08 µM), 0.48. For the same cell line, the relative viability worked out at 0.539 with FG-4592 + Trametinib (first compound 0.253 µM); 0.718 in the experiment with FG-4592 + Trametinib (first compound 0.8 µM); 0.629 with FG-4592 + Trametinib (first compound 2.53 µM); 0.516 with FG-4592 + Trametinib (first compound 8 µM); 0.356 in the experiment with FG-4592 + Pictilisib (first compound 0.08 µM); 0.425 with FG-4592 + Pictilisib (first compound 0.253 µM). Also, the relative viability was 0.426 in the experiment with FG-4592 + Pictilisib (first compound 0.8 µM); 0.438 with FG-4592 + Pictilisib (first compound 2.53 µM); 0.449 with FG-4592 + Pictilisib (first compound 8 µM); 0.693 with FG-4592 + Vorinostat (first compound 0.08 µM); 0.755 with FG-4592 + Vorinostat (first compound 0.253 µM); 0.65 with FG-4592 + Vorinostat (first compound 0.8 µM). Moreover, the relative viability with FG-4592 + Vorinostat (first compound 2.53 µM) turned out to be 0.769; in the experiment with FG-4592 + Vorinostat (first compound 8 µM) it was 0.771.

On to NCI-H2087, for which the relative viability was 0.469 with IU1-47 + Phenformin (first compound 0.08 µM); 0.503 in the experiment with IU1-47 + Phenformin (first compound 0.253 µM); 0.548 in the experiment with IU1-47 + Phenformin (first compound 0.8 µM); 0.441 with IU1-47 + Phenformin (first compound 8 µM); 0.224 with FG-4592 + Trametinib (first compound 0.08 µM); 0.19 with FG-4592 + Trametinib (first compound 0.253 µM). For the same cell line, the relative viability was found to be 0.198 in the experiment with FG-4592 + Trametinib (first compound 0.8 µM); 0.235 with FG-4592 + Trametinib (first compound 8 µM); 0.934 in the experiment with FG-4592 + Pictilisib (first compound 0.08 µM); 0.707 in the experiment with FG-4592 + Pictilisib (first compound 0.253 µM); 0.903 with FG-4592 + Pictilisib (first compound 0.8 µM); 0.809 in the experiment with FG-4592 + Pictilisib (first compound 2.53 µM). The relative viability was found to be 0.836 with FG-4592 + Pictilisib (first compound 8 µM); 0.695 in the experiment with FG-4592 + Vorinostat (first compound 0.08 µM); 0.453 with FG-4592 + Vorinostat (first compound 0.253 µM); 0.565 with FG-4592 + Vorinostat (first compound 0.8 µM); 0.869 in the experiment with FG-4592 + Vorinostat (first compound 8 µM).

NCI-H2126: the relative viability with IU1-47 + Phenformin (first compound 0.08 µM) turned out to be 0.535; in the experiment with IU1-47 + Phenformin (first compound 0.253 µM), 0.515; with IU1-47 + Phenformin (first compound 0.8 µM), 0.508; with IU1-47 + Phenformin (first compound 8 µM), 0.529; in the experiment with FG-4592 + Trametinib (first compound 0.08 µM) it was 0.586; with FG-4592 + Trametinib (first compound 0.253 µM), 0.576. The relative viability is 0.455 in the experiment with FG-4592 + Trametinib (first compound 0.8 µM); 0.534 in the experiment with FG-4592 + Trametinib (first compound 2.53 µM); 0.476 in the experiment with FG-4592 + Trametinib (first compound 8 µM); 0.487 with FG-4592 + Pictilisib (first compound 0.08 µM); 0.483 with FG-4592 + Pictilisib (first compound 0.253 µM); 0.449 with FG-4592 + Pictilisib (first compound 0.8 µM). The relative viability with FG-4592 + Pictilisib (first compound 2.53 µM) amounted to 0.511; with FG-4592 + Pictilisib (first compound 8 µM), 0.531; with FG-4592 + Vorinostat (first compound 0.08 µM) it was 0.709; in the experiment with FG-4592 + Vorinostat (first compound 0.253 µM), 0.726; with FG-4592 + Vorinostat (first compound 0.8 µM), 0.594; with FG-4592 + Vorinostat (first compound 2.53 µM), 0.509. The relative viability with FG-4592 + Vorinostat (first compound 8 µM) was found to be 0.73.
